Results from PubChem BioAssay (NCI).
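Grown in 96-well plates, cells were treated for 48 hours with each compound at five concentrations. Insufficient inhibition: endpoint recorded as highest concentration tested. Here, GI50 denotes the concentration required for 50% inhibition of growth. TGI is the concentration that stops growth completely.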

Assays:
Test in all cases: DTP human tumour cell line panel, 48 h
SF-295 CNS = system: SF-295 CNS
MALME-3M melanoma = system: MALME-3M melanoma
SW-620 colon = system: SW-620 colon
SN12C renal = system: SN12C renal
NCI-H522 lung = system: NCI-H522 lung
U251 CNS = system: U251 CNS
OVCAR-4 ovarian = system: OVCAR-4 ovarian
HOP-62 NSCLC = system: HOP-62 NSCLC
HCT-116 colon = system: HCT-116 colon
NCI-H226 lung = system: NCI-H226 lung

Row | Compound | TGI (SF-295 CNS) | TGI (MALME-3M melanoma) | TGI (SW-620 colon) | TGI (SN12C renal) | TGI (NCI-H522 lung) | TGI (U251 CNS) | TGI (OVCAR-4 ovarian) | TGI (HOP-62 NSCLC) | TGI (HCT-116 colon) | TGI (NCI-H226 lung) | GI50 (SF-295 CNS) | GI50 (MALME-3M melanoma) | GI50 (SN12C renal) | GI50 (NCI-H522 lung) | GI50 (U251 CNS) | GI50 (OVCAR-4 ovarian) | GI50 (HOP-62 NSCLC) | GI50 (HCT-116 colon) | GI50 (NCI-H226 lung)
1 | O=C1c2ccccc2C(=O)c2c(Nc3ccc4c5c(cccc35)C(=O)c3ccccc3-4)cccc21 | > 100 µM | > 100 µM | > 100 µM | > 100 µM | > 100 µM | > 100 µM | > 100 µM | > 100 µM | > 100 µM | > 100 µM | – | – | – | – | – | – | – | – | –
2 | O=c1ccc2nc(-c3ccccc3)nn(-c3ccccn3)c-2c1 | > 100 µM | 3.56 µM | – | 37.9 µM | 2.97 µM | 42.4 µM | 3.19 µM | 82.9 µM | 11.3 µM | 57.5 µM | 31 µM | 1.92 µM | 16.9 µM | 1.51 µM | 17.2 µM | 1.67 µM | 21.8 µM | 3.33 µM | 20.4 µM
3 | N#CN=C(N)NC(=O)/C=C/C=C/c1ccc(Cl)cc1 | > 100 µM | > 100 µM | > 100 µM | > 100 µM | > 100 µM | > 100 µM | > 100 µM | > 100 µM | > 100 µM | > 100 µM | – | – | – | – | – | – | – | – | –
4 | CC(C)(C)N1C(C(=O)c2ccccc2)C1c1ccccc1 (centres undefined) | – | – | > 100 µM | > 100 µM | > 100 µM | > 100 µM | > 100 µM | > 100 µM | – | > 100 µM | – | – | – | – | – | – | – | – | –
5 | CC(=O)OC(C)C1C2=C(C(=O)CC1(C)O)C(=O)c1c(ccc(-c3ccc4c(c3O)C(=O)C3=C(C4=O)C(C(C)OC(C)=O)C(C)(O)CC3=O)c1O)C2=O (centres undefined) | 24 µM | 2.12 µM | 2.1 µM | 6.58 µM | 4.25 µM | 12.9 µM | 5.26 µM | 33.4 µM | 1.77 µM | 27.8 µM | – | – | – | – | – | – | – | – | –
6 | N#CCCCC[N+]12CN3CN(CN(C3)C1)C2 | > 100 µM | > 100 µM | > 100 µM | > 100 µM | > 100 µM | > 100 µM | > 100 µM | > 100 µM | > 100 µM | > 100 µM | – | – | – | – | – | – | – | – | –
7 | CC(C)(C)OC(=O)c1cnc(Cl)cn1 | > 100 µM | > 100 µM | > 100 µM | > 100 µM | 2.78 µM | > 100 µM | 91.9 µM | > 100 µM | > 100 µM | > 100 µM | – | – | – | – | – | – | – | – | –
8 | Nc1nc(N)c2c(n1)NC(=O)c1c(c3ccccc3n1Cc1ccc(Cl)cc1)C2 | 84.7 µM | > 100 µM | > 100 µM | 38.2 µM | – | > 100 µM | 49.9 µM | 57.5 µM | 66.9 µM | > 100 µM | – | – | – | – | – | – | – | – | –
9 | CC(C)=CCNc1ncnc2nc[nH]c12 | > 100 µM | > 100 µM | > 100 µM | > 100 µM | > 100 µM | > 100 µM | > 100 µM | > 100 µM | > 100 µM | > 100 µM | – | – | – | – | – | – | – | – | –
10 | COc1ccc(C[C@H](N)C(=O)NC2C(CO)OC(n3cnc4c(N(C)C)ncnc43)C2O)cc1 (some centres undefined) | 1.57 µM | 2.53 µM | – | – | – | 0.131 µM | 2.1 µM | 2.07 µM | 0.293 µM | 0.446 µM | – | – | – | – | – | – | – | – | –
11 | COC(=O)Nc1nc2cc(OC)c(OC)cc2c(=O)[nH]1 | 37 µM | > 100 µM | > 100 µM | > 100 µM | 6.51 µM | > 100 µM | > 100 µM | > 100 µM | > 100 µM | > 100 µM | – | – | – | – | – | – | – | – | –
12 | N=C(c1ccc2ccccc2c1)c1ccccc1Cc1ccccc1 | > 100 µM | – | > 100 µM | > 100 µM | – | > 100 µM | > 100 µM | > 100 µM | > 100 µM | 98.9 µM | – | – | – | – | – | – | – | – | –
13 | CCOC(=O)C12CCC(=O)C=C1[C@@H](C)C(=O)CC2 (some centres undefined) | > 100 µM | > 100 µM | > 100 µM | > 100 µM | – | > 100 µM | – | > 100 µM | > 100 µM | > 100 µM | – | – | – | – | – | – | – | – | –
14 | CSc1nc(Cl)c(Br)c(Sc2nc(N)nc3nc[nH]c23)n1 | 17.7 µM | 26.4 µM | 25.3 µM | – | 3.45 µM | 16.4 µM | 23.3 µM | 8.69 µM | 12.4 µM | 22.3 µM | – | – | – | – | – | – | – | – | –
15 | NC(=O)C(N)=O | > 100 µM | > 100 µM | > 100 µM | > 100 µM | > 100 µM | > 100 µM | – | > 100 µM | > 100 µM | – | – | – | – | – | – | – | – | – | –
16 | O=C(CSc1nc2ccccc2s1)c1sc2sc3ccccc3[n+]2c1[O-] | > 100 µM | > 100 µM | > 100 µM | > 100 µM | > 100 µM | > 100 µM | > 100 µM | > 100 µM | > 100 µM | > 100 µM | – | – | – | – | – | – | – | – | –
17 | CC(C)c1cc(CN(C)C)c(O)c(C(C)(C)C)c1 | 37.4 µM | 76.2 µM | 36.4 µM | 33.1 µM | 38.1 µM | 30 µM | 99.1 µM | 62.9 µM | > 100 µM | 42.5 µM | – | – | – | – | – | – | – | – | –
